In ChEMBL document CHEMBL4184264, “Heterobicyclic inhibitors of transforming growth factor beta receptor I (TGFβRI)” (Bioorg Med Chem, 2018):

Experiments:
[1] = Solubility of the compound in DMSO; format: physicochemical
[2] = Metabolic stability in human liver microsomes assessed as compound remaining by LC-MS/MS analysis; format: ADME, microsome
[3] = Metabolic stability in rat liver microsomes assessed as compound remaining by LC-MS/MS analysis; format: ADME, microsome
[4] = Metabolic stability in mouse liver microsomes assessed as compound remaining by LC-MS/MS analysis; format: ADME, microsome
[5] = Inhibition of TGFbetaR1 in mink Mv1Lu cells assessed as TGFbeta-stimulated PSMAD2 phosphorylation preincubated for 1 hr followed by TGFbeta addition measured after 15 mins; format: cell-based, Neovison vison; conditions: Neogale vison
TGF-beta receptor type-2 = TGF-beta receptor type-2 (Homo sapiens, UniProt P37173); assay: Inhibition of wild type His-tagged TGFbetaR2 (unknown origin) after 1 hr by HTRF assay
Chain of TGF-beta receptor type-2 (P37173 whole entry): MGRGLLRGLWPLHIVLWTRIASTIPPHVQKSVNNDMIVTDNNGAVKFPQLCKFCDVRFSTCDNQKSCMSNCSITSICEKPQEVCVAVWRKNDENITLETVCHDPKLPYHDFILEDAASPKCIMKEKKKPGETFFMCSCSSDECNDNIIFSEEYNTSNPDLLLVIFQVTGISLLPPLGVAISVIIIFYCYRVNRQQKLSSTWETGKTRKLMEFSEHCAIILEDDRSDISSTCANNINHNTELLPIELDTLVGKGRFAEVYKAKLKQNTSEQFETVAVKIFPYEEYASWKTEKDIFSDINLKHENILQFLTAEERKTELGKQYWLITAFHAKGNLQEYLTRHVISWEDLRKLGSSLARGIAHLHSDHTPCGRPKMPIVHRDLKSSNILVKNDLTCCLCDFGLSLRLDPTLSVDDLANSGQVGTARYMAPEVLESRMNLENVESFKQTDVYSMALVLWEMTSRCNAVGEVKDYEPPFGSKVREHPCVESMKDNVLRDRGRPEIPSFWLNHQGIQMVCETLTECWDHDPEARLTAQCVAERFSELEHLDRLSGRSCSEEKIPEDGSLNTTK

Mus musculus = assay: In vivo inhibition of TGFbetaR1 in po dosed BALB/c mouse implanted with mouse 4T1 cells assessed as reduction in phosphorylated PSMAD levels after 7 hrs; format: functional, organism-based

| SMILES | solubility [1] | Stability [2] | Stability [3] | Stability [4] | IC50 [5] | IC50 (TGF-beta receptor type-2) | Activity (Mus musculus) |
| --- | --- | --- | --- | --- | --- | --- | --- |
| Cc1cccc(-c2nc(Nc3ccnc4ccccc34)c3cccn3n2)n1 | Insoluble |  |  |  |  |  |  |
| CC(=O)Nc1cc(Nc2nc(-c3cccc(C(F)(F)F)n3)nc3[nH]cnc23)ccn1 |  | 85% | 77% | 59% | 130 nM |  |  |
| CC(=O)Nc1cc(Nc2nc(-c3cccc(C(F)(F)F)n3)nn3cccc23)c(F)cn1 |  | 78% | 68% | 66% |  |  |  |
| Fc1cnccc1Nc1nc(-c2cccc(C(F)(F)F)n2)nc2[nH]ccc12 |  | 36% |  | 28% | 47 nM |  |  |
| COc1cccc(-c2nc(Nc3ccncc3)c3cccn3n2)n1 |  | 12% | 36% | 2% | 3900 nM |  |  |
| Cc1cccc(-c2nn3c(c2-c2ccnc4ccc(C(N)=O)cc24)CCC3)n1 [GALUNISERTIB] |  |  |  |  |  | 1300 nM |  |
| CC(=O)Nc1cc(Nc2nc(-c3cccc(C(F)(F)F)n3)nc3[nH]ccc23)ccn1 |  | 81% | 80% | 27% | 43 nM |  |  |
| CC(=O)Nc1cc(Nc2nc(-c3cccc(C(F)(F)F)n3)nn3cccc23)ccn1 |  | 75% | 35% | 49% | 180 nM |  | Dose-dependent effect |
| O=C(CN1CCN(CCO)CC1)Nc1cc(Nc2nc(-c3cccc(C(F)(F)F)n3)nn3cccc23)ccn1 |  | 70% |  | 77% | 220 nM |  |  |
| c1ccc(-c2nn3c(c2-c2ccnc4cc(OCCN5CCOCC5)ccc24)CCC3)nc1 |  | 58% | 46% | 36% | 750 nM | 190 nM |  |
| FC(F)(F)c1cccc(-c2nc(Nc3ccncc3)c3cccn3n2)n1 |  | 24% | 48% | 13% | 710 nM |  |  |

Further lines, with some results ahead:

| solubility [1] | Stability [2] | Stability [3] | Stability [4] | IC50 [5] | IC50 (TGF-beta receptor type-2) | SMILES | Activity (Mus musculus) |
| --- | --- | --- | --- | --- | --- | --- | --- |
|  | 86% | 72% | 48% | 76 nM |  | N[C@H]1CC[C@@H](NCc2ccn3nc(-c4ccccn4)nc(Nc4ccncc4F)c23)CC1 |  |
|  | 15% | 39% | 7% | 1200 nM |  | Cc1cccc(-c2nc(Nc3c(F)cncc3F)c3cccn3n2)n1 |  |
|  | 85% | 90% | 82% | 390 nM |  | N[C@H]1CCN(Cc2ccn3nc(-c4ccccn4)nc(Nc4ccncc4F)c23)C[C@@H]1O |  |
| Soluble | 11% | 28% | 1% | 99 nM |  | Cc1cccc(-c2nc(Nc3ccncc3)c3cccn3n2)n1 |  |
|  | 11% | 35% | 6% | 180 nM |  | Cc1cccc(-c2nc(Nc3ccncc3F)c3cccn3n2)n1 |  |
|  | 65% | 67% | 26% | > 10000 nM |  | Cc1cccc(-c2nc(Nc3ccncc3C(=O)NC(C)C)c3cccn3n2)n1 |  |
|  | 38% | 47% | 4% | 150 nM |  | Cc1cccc(-c2nc(Nc3ccncc3F)c3nc[nH]c3n2)n1 |  |
|  | 93% | 92% | 100% | 310 nM |  | N[C@@H]1CCN(Cc2ccn3nc(-c4ccccn4)nc(Nc4ccncc4F)c23)C[C@H]1O |  |
|  | 33% | 33% | 1% | 350 nM |  | c1ccc(-c2nc(Nc3ccncc3)c3cccn3n2)nc1 |  |
|  | 54% | 54% | 19% | 500 nM |  | Fc1cnccc1Nc1nc(-c2ccccn2)nn2cccc12 |  |
|  | 25% | 38% | 2% | 24 nM |  | Cc1cccc(-c2nc(Nc3ccncc3F)c3cc[nH]c3n2)n1 |  |
